Assay results published in ChEMBL document CHEMBL1201862, “PubChem BioAssay data set” (2004).
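Assay format: 96-well plates, 48-hour exposure. Here, GI50 denotes the concentration required for 50% inhibition of growth.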 The source made the active and inactive calls. No stated cut-off is given here; in the data, active = GI50 up to about 1.1 µM and inactive = higher.

Experiments:
Test in all cases: inhibition of tumour cell growth, NCI panel, 48 h
UACC-62 = test system: UACC-62
T47D = test system: T47D
ACHN = test system: ACHN
SK-MEL-5 = test system: SK-MEL-5
SF-268 = test system: SF-268
M14 = test system: M14
NCI-H23 = test system: NCI-H23
NCI/ADR-RES = test system: NCI/ADR-RES
OVCAR-8 = test system: OVCAR-8
A549 = test system: A549
NCI-H226 = test system: NCI-H226
HCC 2998 = test system: HCC 2998
A498 = test system: A498
HT-29 = test system: HT-29
HOP-62 = test system: HOP-62
OVCAR-5 = test system: OVCAR-5
SK-MEL-28 = test system: SK-MEL-28
TK-10 = test system: TK-10
CAKI-1 = test system: CAKI-1
OVCAR-4 = test system: OVCAR-4

SMILES | GI50 (UACC-62) | GI50 (T47D) | GI50 (ACHN) | GI50 (SK-MEL-5) | GI50 (SF-268) | GI50 (M14) | GI50 (NCI-H23) | GI50 (NCI/ADR-RES) | GI50 (OVCAR-8) | GI50 (A549) | GI50 (NCI-H226) | GI50 (HCC 2998) | GI50 (A498) | GI50 (HT-29) | GI50 (HOP-62) | GI50 (OVCAR-5) | GI50 (SK-MEL-28) | GI50 (TK-10) | GI50 (CAKI-1) | GI50 (OVCAR-4)
O=C(/C=C/c1ccc(O)c(O)c1)OCCc1ccc2ccccc2c1 | 3.69 µM (inactive) | 4.67 µM (inactive) | 2.86 µM (inactive) | 3.15 µM (inactive) | 10.9 µM (inactive) | 4.95 µM (inactive) | 3.42 µM (inactive) | 4.08 µM (inactive) | 10.4 µM (inactive) | 9.35 µM (inactive) | 14.8 µM (inactive) | 17 µM (inactive) | 15.2 µM (inactive) | 12.9 µM (inactive) | 13.2 µM (inactive) | 16.1 µM (inactive) | 9.14 µM (inactive) | 7.11 µM (inactive) | – | –
Cc1cc2c(cc1-c1cc3c(cc1C)C(C(C)C)=C(O)C(=O)/C3=C\Nc1ccccn1)/C(=C/Nc1ccccn1)C(=O)C(O)=C2C(C)C | 65 µM (inactive) | > 100 µM (inactive) | 43.3 µM (inactive) | 30.3 µM (inactive) | 30.3 µM (inactive) | 87.5 µM (inactive) | 46.9 µM (inactive) | 27.9 µM (inactive) | 29 µM (inactive) | 31.3 µM (inactive) | 23 µM (inactive) | 22.5 µM (inactive) | > 100 µM (inactive) | – | – | > 100 µM (inactive) | 58.2 µM (inactive) | > 100 µM (inactive) | 45.8 µM (inactive) | 34.9 µM (inactive)
S=C(NCCc1ccccn1)N/N=C/c1ccccn1 | 0.0841 µM (active) | < 0.01 µM (active) | < 0.01 µM (active) | 0.182 µM (active) | 0.301 µM (active) | 0.0131 µM (active) | < 0.01 µM (active) | 0.0147 µM (active) | 0.0489 µM (active) | 0.578 µM (active) | 0.0598 µM (active) | 3.06 µM (inactive) | – | – | 0.0149 µM (active) | < 0.018 µM (active) | 1.87 µM (inactive) | 0.42 µM (active) | < 0.01 µM (active) | 0.519 µM (active)
O=C(OCc1ccccc1)N1CCNCCN(C(=O)OCc2ccccc2)CCNCC1 | 27.5 µM (inactive) | 0.254 µM (active) | 50.4 µM (inactive) | 13.4 µM (inactive) | – | – | – | 75.7 µM (inactive) | 55.1 µM (inactive) | 63.2 µM (inactive) | 36.9 µM (inactive) | – | 27.5 µM (inactive) | 17.7 µM (inactive) | 16.9 µM (inactive) | 32.2 µM (inactive) | 19.5 µM (inactive) | 91.8 µM (inactive) | 15 µM (inactive) | 40.4 µM (inactive)
C(=C\Nc1ccc(-c2ccccc2)cc1)/C=N/c1ccc(-c2ccccc2)cc1 | > 100 µM (inactive) | > 100 µM (inactive) | > 100 µM (inactive) | > 100 µM (inactive) | > 100 µM (inactive) | > 100 µM (inactive) | > 100 µM (inactive) | > 100 µM (inactive) | > 100 µM (inactive) | > 100 µM (inactive) | > 100 µM (inactive) | – | – | > 100 µM (inactive) | > 100 µM (inactive) | > 100 µM (inactive) | > 100 µM (inactive) | 54.3 µM (inactive) | > 100 µM (inactive) | > 100 µM (inactive)
CCOC(=O)c1c(NC(=O)c2ccc(OC)cc2)sc2c1CCCC2 | > 100 µM (inactive) | > 100 µM (inactive) | > 100 µM (inactive) | > 100 µM (inactive) | > 100 µM (inactive) | > 100 µM (inactive) | > 100 µM (inactive) | > 100 µM (inactive) | > 100 µM (inactive) | > 100 µM (inactive) | > 100 µM (inactive) | – | > 100 µM (inactive) | > 100 µM (inactive) | > 100 µM (inactive) | > 100 µM (inactive) | > 100 µM (inactive) | > 100 µM (inactive) | > 100 µM (inactive) | –
CCOC(=O)NC(OCCN(C)C)(C(F)(F)F)C(F)(F)F | > 100 µM (inactive) | > 100 µM (inactive) | > 100 µM (inactive) | > 100 µM (inactive) | > 100 µM (inactive) | > 100 µM (inactive) | > 100 µM (inactive) | > 100 µM (inactive) | > 100 µM (inactive) | > 100 µM (inactive) | > 100 µM (inactive) | > 100 µM (inactive) | > 100 µM (inactive) | > 100 µM (inactive) | > 100 µM (inactive) | > 100 µM (inactive) | > 100 µM (inactive) | > 100 µM (inactive) | > 100 µM (inactive) | –
Nc1cc2ncnc(Nc3cccc(Br)c3)c2cn1 | 38.5 µM (inactive) | 23.9 µM (inactive) | 3.44 µM (inactive) | 42.7 µM (inactive) | 58.2 µM (inactive) | 38 µM (inactive) | 57 µM (inactive) | 45.6 µM (inactive) | 36.1 µM (inactive) | 35.9 µM (inactive) | 23.8 µM (inactive) | – | 3.61 µM (inactive) | 31.4 µM (inactive) | 29.4 µM (inactive) | 26.7 µM (inactive) | 71.9 µM (inactive) | 2.52 µM (inactive) | 32.4 µM (inactive) | 39.9 µM (inactive)
